Results on 16 compounds are retold here after patent US20050090396A1, “Herbicides based on substituted carboxylic acid anilides” (priority 2001, published 2005).

In experiment [1] the test system is Triticum aestivum (winter wheat). In words: Post-emergence test/greenhouse, damage to winter wheat (TRZAW). Type of experiment: in vivo. How it is done: (§1) Post-Emergence Test/Greenhouse
Test plants are grown under controlled conditions (temperature and light). Once the plants have reached a height of 5 to 15 cm, the test compound or the combination of test compounds is applied by spraying such that the particular amounts of active compound desired are applied per unit area. The concentration of the spray liquor is chosen so that the particular amounts of active compound desired are applied in 500 litres of water/ha.
(§2) Following the spray application, the plant containers are kept in the greenhouse under constant light and temperature conditions.
(§3) After five days (5d) and/or three weeks (21d), the degree of damage to the plants is rated in % damage in comparison to the development of the untreated control.
• 0%=no effect (like untreated control) • 100%=total destruction.
Unless indicated otherwise, the tests were carried out in the presence of 0.5% Renex 36. • a.i. denotes “active ingredient” (active compound). • HORVW denotes Hordeum vulgare (winter barley).
TRZAW denotes Triticum aestivum (winter wheat).

For experiment [2], the system named is Hordeum vulgare (winter barley). The experiment is described as follows: Post-emergence test/greenhouse, damage to winter barley (HORVW). Type of experiment: in vivo. How it is done:
as §1
Test plants are grown under controlled conditions (temperature and light).
as §2, §3

The mark [3] stands for this setting: 50 g of ai/ha, without addition of Renex 36.

Regarding `CCS(=O)(=O)N(C(=O)C=Cc1ccccc1Cl)c1cc(-n2c(=O)cc(C(F)(F)F)n(C)c2=O)c(F)cc1C#N` [Ex. I-31], the “degree of damage to the plants, TRZAW 5d” value in experiment [1] (30 g of ai/ha, 0.5% Renex 36) is on record as 20%; in experiment [1] (60 g of ai/ha, 0.5% Renex 36), 20%. In addition, the “degree of damage to the plants, HORVW 5d” value in experiment [2] (15 g of ai/ha, 0.5% Renex 36) is 30%; in experiment [2] (30 g of ai/ha, 0.5% Renex 36), 40%; in experiment [2] (60 g of ai/ha, 0.5% Renex 36), 50%.
`CCS(=O)(=O)N(C(=O)CCc1cccc(OC)c1)c1cc(-n2ncc(=O)n(C)c2=O)c(F)cc1C#N` [Ex. I-41]: the “degree of damage to the plants, HORVW 5d” value in experiment [2] (15 g of ai/ha, 0.5% Renex 36) was 20%; in experiment [2] (30 g of ai/ha, 0.5% Renex 36), 25%.
As to `CCS(=O)(=O)N(C(=O)CCc1ccc(Cl)c(Cl)c1)c1cc(-n2c(=O)cc(C(F)(F)F)n(C)c2=O)c(F)cc1C#N` [Ex. I-2], the “degree of damage to the plants, HORVW 5d” value is recorded as 40% in experiment [2] (30 g of ai/ha, 0.5% Renex 36) and 60% in experiment [2] (60 g of ai/ha, 0.5% Renex 36).
`CCOC(=O)C1=NN(c2ccc(Cl)cc2Cl)C(C)(C(=O)OCC)C1` (stereo not shown) [mefenpyr-diethyl, diethyl 1-(2,4-dichlorophenyl)-4,5-dihydro-5-methyl-1H-pyrazole-3,5-dicarboxylate, reference compound]: in experiment [1] (50 g of ai/ha, 0.5% Renex 36), the “degree of damage to the plants, TRZAW 5d” value is 0% and the “degree of damage to the plants, TRZAW 21d” value (from here on “degree of damage … TRZAW 21d”) amounted to 0%. Further, in experiment [2] (50 g of ai/ha, 0.5% Renex 36), the “degree of damage to the plants, HORVW 5d” value is reported as 0% and the “degree of damage to the plants, HORVW 21d” value (“degree of damage … HORVW 21d” for short) was 0%.
As to `CCS(=O)(=O)N(C(=O)CCc1cccc(OC)c1)c1cc(-n2c(=O)cc(C(F)(F)F)n(C)c2=O)c(F)cc1C#N` [Ex. I-24], the “degree of damage to the plants, HORVW 5d” value was determined as 40% in experiment [2] (15 g of ai/ha, 0.5% Renex 36); 60% in experiment [2] (30 g of ai/ha, 0.5% Renex 36); 70% in experiment [2] (60 g of ai/ha, 0.5% Renex 36).
`CCS(=O)(=O)N(C(=O)CCc1ccc(F)cc1F)c1cc(-n2ncc(=O)n(C)c2=O)c(F)cc1C#N` [Ex. I-43]: the “degree of damage to the plants, TRZAW 5d” value in experiment [1] (15 g of ai/ha, 0.5% Renex 36) amounted to 15%; in experiment [1] (30 g of ai/ha, 0.5% Renex 36), 15%. In addition, in experiment [2] (15 g of ai/ha, without addition of Renex 36), the “degree of damage … HORVW 21d” value was determined as 10%.
As for `CCCCCC(C)OC(=O)COc1ccc(Cl)c2cccnc12` (stereo not shown) [cloquintocet-mexyl, 1-methylhexyl 5-chloroquinolin-8-oxyacetate, reference compound], in experiment [1] (50 g of ai/ha, 0.5% Renex 36), the “degree of damage to the plants, TRZAW 5d” value stood at 0% and the “degree of damage … TRZAW 21d” value came out at 0%. In addition, in experiment [1] (setting [3]), the “degree of damage to the plants, TRZAW 5d” value was found to be 0%. Also, in experiment [2] (50 g of ai/ha, 0.5% Renex 36), the “degree of damage to the plants, HORVW 5d” value came out at 0% and the “degree of damage … HORVW 21d” value is recorded as 0%. Also, in experiment [2] (setting [3]), the “degree of damage to the plants, HORVW 5d” value is 0% and the “degree of damage … HORVW 21d” value stood at 0%.
`CCS(=O)(=O)N(C(=O)C(C)=Cc1ccccc1)c1cc(-n2c(=O)cc(C(F)(F)F)n(C)c2=O)c(F)cc1C#N` [Ex. I-29]: the “degree of damage to the plants, HORVW 5d” value in experiment [2] (15 g of ai/ha, 0.5% Renex 36) was 10%.
`CCOC(=O)C1=NOC(c2ccccc2)(c2ccccc2)C1` [isoxadifen, ethyl 4,5-dihydro-5,5-diphenyl-3-isoxazolecarboxylate, reference compound]: in experiment [1] (50 g of ai/ha, 0.5% Renex 36), the “degree of damage to the plants, TRZAW 5d” value stood at 0% and the “degree of damage … TRZAW 21d” value came to 0%. Besides, in experiment [1] (setting [3]), the “degree of damage to the plants, TRZAW 5d” value worked out at 0%. Also, in experiment [2] (50 g of ai/ha, 0.5% Renex 36), the “degree of damage to the plants, HORVW 5d” value was found to be 0% and the “degree of damage … HORVW 21d” value turned out to be 0%. In addition, in experiment [2] (setting [3]), the “degree of damage to the plants, HORVW 5d” value is recorded as 0% and the “degree of damage … HORVW 21d” value came out at 0%.
Consider `CCS(=O)(=O)N(C(=O)CC(C)c1ccccc1)c1cc(-n2ncc(=O)n(C)c2=O)c(F)cc1C#N` (stereo not shown) [Ex. I-40], for which the “degree of damage to the plants, TRZAW 5d” value in experiment [1] (60 g of ai/ha, 0.5% Renex 36) was 20%. Further, in experiment [2] (60 g of ai/ha, 0.5% Renex 36), the “degree of damage to the plants, HORVW 5d” value is given as 30% and the “degree of damage … HORVW 21d” value was found to be 20%.
As to `Cn1c(C(F)(F)F)cc(=O)n(-c2cc(N(C(=O)C=Cc3ccccc3Cl)S(C)(=O)=O)c(C#N)cc2F)c1=O` [Ex. I-32], the “degree of damage to the plants, HORVW 5d” value in experiment [2] (30 g of ai/ha, 0.5% Renex 36) was 25%; in experiment [2] (60 g of ai/ha, 0.5% Renex 36) it was 40%.
With `CCS(=O)(=O)N(C(=O)CCc1cccc(Cl)c1)c1cc(-n2c(=O)cc(C(F)(F)F)n(C)c2=O)c(F)cc1C#N` [Ex. I-33], in experiment [1] (60 g of ai/ha, 0.5% Renex 36), the “degree of damage to the plants, TRZAW 5d” value worked out at 25% and the “degree of damage … TRZAW 21d” value is given as 15%. In addition, the “degree of damage … TRZAW 21d” value in experiment [1] (30 g of ai/ha, 0.5% Renex 36) amounted to 10%. In experiment [2] (60 g of ai/ha, 0.5% Renex 36), the “degree of damage to the plants, HORVW 5d” value turned out to be 40% and the “degree of damage … HORVW 21d” value came to 20%. Also, in experiment [2] (30 g of ai/ha, 0.5% Renex 36), the “degree of damage … HORVW 21d” value is reported as 15%.
Consider `CCS(=O)(=O)N(C(=O)CCc1ccc(F)c(F)c1)c1cc(-n2ncc(=O)n(C)c2=O)c(F)cc1C#N` [Ex. I-42], for which the “degree of damage to the plants, HORVW 5d” value in experiment [2] (15 g of ai/ha, 0.5% Renex 36) came to 15%; in experiment [2] (30 g of ai/ha, 0.5% Renex 36), 20%; in experiment [2] (60 g of ai/ha, 0.5% Renex 36) it was 30%. The “degree of damage … HORVW 21d” value in experiment [2] (60 g of ai/ha, 0.5% Renex 36) is 20%.
Regarding `CCS(=O)(=O)N(C(=O)CCc1ccc(Cl)c(Cl)c1)c1cc(-n2ncc(=O)n(C)c2=O)c(F)cc1C#N` [Ex. I-14], the “degree of damage to the plants, TRZAW 5d” value in experiment [1] (60 g of ai/ha, 0.5% Renex 36) is 20%. The “degree of damage to the plants, HORVW 5d” value in experiment [2] (60 g of ai/ha, 0.5% Renex 36) was 30%.
With `CCS(=O)(=O)N(C(=O)COc1ccc(Cl)cc1Cl)c1cc(-n2c(=O)cc(C(F)(F)F)n(C)c2=O)c(F)cc1C#N` [Ex. I-1], the “degree of damage … HORVW 21d” value in experiment [2] (30 g of ai/ha, 0.5% Renex 36) came to 20%; in experiment [2] (60 g of ai/ha, 0.5% Renex 36), 40%.
With `Cn1c(C(F)(F)F)cc(=O)n(-c2cc(N(C(=O)CCc3ccc(F)c(F)c3)S(C)(=O)=O)c(C#N)cc2F)c1=O` [Ex. I-26], the “degree of damage … TRZAW 21d” value was 20% in experiment [1] (30 g of ai/ha, 0.5% Renex 36) and 30% in experiment [1] (60 g of ai/ha, 0.5% Renex 36). Besides, the “degree of damage … HORVW 21d” value is recorded as 10% in experiment [2] (15 g of ai/ha, 0.5% Renex 36); 20% in experiment [2] (30 g of ai/ha, 0.5% Renex 36); 40% in experiment [2] (60 g of ai/ha, 0.5% Renex 36).
